Values of other authors, collected in patent US12496330B2, “Methods of improving spinal fusion with abaloparatide” (Radius Health, Inc., priority 2019, dated 2025).

System: bone resorption and bone formation markers
Settings: male mice; at 4-fold the current dose

## CC[C@H](C)[C@H](NC(=O)[C@H](CCC(=O)O)NC(=O)[C@H](CO)NC(=O)[C@@H](NC(=O)[C@@H](N)CO)C(C)C)C(=O)N[C@@H](CCC(N)=O)C(=O)N[C@@H](CC(C)C)C(=O)N[C@@H](CCSC)C(=O)N[C@@H](Cc1cnc[nH]1)C(=O)N[C@@H](CC(N)=O)C(=O)N[C@@H](CC(C)C)C(=O)NCC(=O)N[C@@H](CCCCN)C(=O)N[C@@H](Cc1cnc[nH]1)C(=O)N[C@@H](CC(C)C)C(=O)N[C@@H](CC(N)=O)C(=O)N[C@@H](CO)C(=O)N[C@@H](CCSC)C(=O)N[C@@H](CCC(=O)O)C(=O)N[C@@H](CCCN=C(N)N)C(=O)N[C@H](C(=O)N[C@@H](CCC(=O)O)C(=O)N[C@@H](Cc1c[nH]c2ccccc12)C(=O)N[C@@H](CC(C)C)C(=O)N[C@@H](CCCN=C(N)N)C(=O)N[C@@H](CCCCN)C(=O)N[C@@H](CCCCN)C(=O)N[C@@H](CC(C)C)C(=O)N[C@@H](CCC(N)=O)C(=O)N[C@@H](CC(=O)O)C(=O)N[C@H](C(=O)N[C@@H](Cc1cnc[nH]1)C(=O)N[C@@H](CC(N)=O)C(=O)N[C@@H](Cc1ccccc1)C(=O)O)C(C)C)C(C)C [teriparatide]
  Bone resorption markers: increased
